# Measurements published in patent US20080033045A1, “TREATMENT OF PSYCHIATRIC DISORDERS” (Myriad Genetics, Incorporated, priority 2006, published 2008).
# Tested on: Alzheimer's disease patients
# Test: Clinical trial in Alzheimer's disease patients, analysis of psychiatric disorder events (MedDRA adverse events)
# Type: in vivo, human
# Procedure: A clinical trial with (R)-2-(2-fluoro-4-biphenylyl)propionic acid (USAN name of tarneflurbil) was conducted according to the method disclosed in U.S. patent application Ser. No. 10/889,971, filed Jul. 12, 2004, (US publication no. 20050042284) which is expressly incorporated herein by reference in its entirety. In this clinical trial, Alzheimer's disease patients were treated with placebo, 400 mg tarenflurbil twice daily, or 800 mg tarenflurbil twice daily for one year. Analysis of the psychiatric disorder events yielded the following results.
# [1] = 400 mg BID for one year, N = 40
# [2] = 800 mg BID for one year, N = 50
smiles,measurement,setting,value
"C[C@@H](C(=O)O)c1ccc(-c2ccccc2)c(F)c1 [tarenflurbil, (R)-2-(2-fluoro-4-biphenylyl)propionic acid]","Abnormal behaviour, number",[1],0
same,"Abnormal dreams, number",[1],0
same,"Aggression, number",[1],0
same,"Agitation, number",[1],2
same,"Agitation, percent of N",[1],(5%)
same,"Anger, number",[1],1
same,"Anger, percent of N",[1],(2.5%)
same,"Anxiety, number",[1],2
same,"Anxiety, percent of N",[1],(5%)
same,"Apathy, number",[1],0
same,"Confusional state, number",[1],4
same,"Confusional state, percent of N",[1],(10%)
same,"Delusion, number",[1],1
same,"Delusion, percent of N",[1],(2.5%)
same,"Depression, number",[1],1
same,"Depression, percent of N",[1],(2.5%)
same,"Hallucination, number",[1],0
same,"Hallucination, visual, number",[1],1
same,"Hallucination, visual, percent of N",[1],(2.5%)
same,"Insomnia, number",[1],0
same,"Libi do increased, number",[1],1
same,"Libi do increased, percent of N",[1],(2.5%)
same,"Mood altered, number",[1],0
same,"Mood swings, number",[1],1
same,"Mood swings, percent of N",[1],(2.5%)
same,"Nightmare, number",[1],0
same,Number of Patients With at Least One Adverse Event (Psychiatric Disorder),[1],12
same,"Paranoia, number",[1],1
same,"Paranoia, percent of N",[1],(2.5%)
same,"Patients With at Least One Adverse Event (Psychiatric Disorder), percent of N",[1],(30%)
same,"Psychotic disorder, number",[1],1
same,"Psychotic disorder, percent of N",[1],(2.5%)
same,"Sleep disorder, number",[1],1
same,"Sleep disorder, percent of N",[1],(2.5%)
same,"Total Number of Adverse Events (Psychiatric Disorders, MedDRA)",[1],17
same,"Abnormal behaviour, number",[2],0
same,"Abnormal dreams, number",[2],0
same,"Aggression, number",[2],0
same,"Agitation, number",[2],1
same,"Agitation, percent of N",[2],(2%)
same,"Anger, number",[2],0
same,"Anxiety, number",[2],2
same,"Anxiety, percent of N",[2],(4%)
same,"Apathy, number",[2],0
same,"Confusional state, number",[2],0
same,"Delusion, number",[2],0
same,"Depression, number",[2],4
same,"Depression, percent of N",[2],(8%)
same,"Hallucination, number",[2],0
same,"Hallucination, visual, number",[2],0
same,"Insomnia, number",[2],1
same,"Insomnia, percent of N",[2],(2%)
same,"Libi do increased, number",[2],0
same,"Mood altered, number",[2],1
same,"Mood altered, percent of N",[2],(2%)
same,"Mood swings, number",[2],0
same,"Nightmare, number",[2],1
same,"Nightmare, percent of N",[2],(2%)
same,Number of Patients With at Least One Adverse Event (Psychiatric Disorder),[2],7
same,"Paranoia, number",[2],0
same,"Patients With at Least One Adverse Event (Psychiatric Disorder), percent of N",[2],(14%)
same,"Psychotic disorder, number",[2],0
same,"Sleep disorder, number",[2],0
same,"Total Number of Adverse Events (Psychiatric Disorders, MedDRA)",[2],10
same,number of psychiatric events (incidence),"treatment group, statistical analysis, p=0.02",reduce the incidence of psychiatric events
same,time to progression to psychiatric events (onset),"treatment group, statistical analysis, p=0011",delay the onset of
